Results: ChEMBL document CHEMBL1201862, “PubChem BioAssay data set” (2004)
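How tested: cells in 96-well plates exposed to compound for 48 hours at five concentrations. Here, GI50 denotes the concentration required for 50% inhibition of growth.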 Active and inactive are the calls of the source. Rule as the data show it: active = GI50 up to about 1.1 µM and inactive = higher.

Experiments:
Assay in all cases: DTP human tumour cell line panel, 48 h
SNB-75 = tested on: SNB-75
XF498 = tested on: XF498
KM12 = tested on: KM12
SNB-19 = tested on: SNB-19
EKVX = tested on: EKVX
786-0 = tested on: 786-0
Malme-3M = tested on: Malme-3M
RXF 631 = tested on: RXF 631
OVCAR-3 = tested on: OVCAR-3
U-251 = tested on: U-251
TK-10 = tested on: TK-10
CCRF-CEM = tested on: CCRF-CEM
OVCAR-5 = tested on: OVCAR-5
SNB-78 = tested on: SNB-78
KM-20L2 = tested on: KM-20L2
UO-31 = tested on: UO-31
HT-29 = tested on: HT-29
M14 = tested on: M14
SW-620 = tested on: SW-620
MOLT-4 = tested on: MOLT-4
NCI-H226 = tested on: NCI-H226
SK-MEL-2 = tested on: SK-MEL-2
RXF 393 = tested on: RXF 393
M19-MEL = tested on: M19-MEL
ACHN = tested on: ACHN
OVCAR-4 = tested on: OVCAR-4
CAKI-1 = tested on: CAKI-1
IGROV-1 = tested on: IGROV-1
SK-OV-3 = tested on: SK-OV-3
DLD-1 = tested on: DLD-1
HOP-62 = tested on: HOP-62
NCI-H522 = tested on: NCI-H522
RPMI-8226 = tested on: RPMI-8226
SF-268 = tested on: SF-268
HL-60 = tested on: HL-60
NCI-H23 = tested on: NCI-H23
NCI-H460 = tested on: NCI-H460
HCC 2998 = tested on: HCC 2998
HOP-92 = tested on: HOP-92
SF-295 = tested on: SF-295
LXFL 529 = tested on: LXFL 529
K562 = tested on: K562
DMS-273 = tested on: DMS-273
SF-539 = tested on: SF-539
COLO 205 = tested on: COLO 205
SN12C = tested on: SN12C
A498 = tested on: A498
SK-MEL-28 = tested on: SK-MEL-28
A549 = tested on: A549
UACC-257 = tested on: UACC-257
SK-MEL-5 = tested on: SK-MEL-5
LOX IMVI = tested on: LOX IMVI
OVCAR-8 = tested on: OVCAR-8
SR = tested on: SR
HCT-15 = tested on: HCT-15
DMS-114 = tested on: DMS-114
HCT-116 = tested on: HCT-116
UACC-62 = tested on: UACC-62
HOP-18 = tested on: HOP-18

Measured: GI50

CCc1cccc(C)c1NC(=O)C1=C(C)NC(C)=C(C(=O)Nc2c(C)cccc2CC)C1c1ccc([N+](=O)[O-])cc1
inactive: SNB-75 3.98 µM | XF498 19.4 µM | KM12 49.9 µM | SNB-19 53.5 µM | EKVX 27.8 µM | 786-0 72.8 µM | Malme-3M 75.3 µM | RXF 631 29.1 µM | OVCAR-3 44.9 µM | U-251 60 µM | TK-10 83.9 µM | CCRF-CEM 27.4 µM | OVCAR-5 > 100 µM | SNB-78 97.1 µM | KM-20L2 39.9 µM | UO-31 16.3 µM | HT-29 44.5 µM | M14 34.8 µM | SW-620 72.1 µM | MOLT-4 11.6 µM | NCI-H226 39.8 µM | SK-MEL-2 35.6 µM | RXF 393 24.4 µM | M19-MEL 38.1 µM | ACHN 18.3 µM | OVCAR-4 13.4 µM | CAKI-1 25.5 µM | IGROV-1 29.6 µM | SK-OV-3 > 100 µM | DLD-1 29 µM | HOP-62 40.1 µM | NCI-H522 15.5 µM | RPMI-8226 15.3 µM | SF-268 39.9 µM | HL-60 17.9 µM | NCI-H23 27.3 µM | NCI-H460 28.6 µM | HCC 2998 21.3 µM | HOP-92 2.75 µM | SF-295 58.7 µM | LXFL 529 37.9 µM | K562 23.9 µM | DMS-273 38.6 µM | SF-539 > 100 µM | COLO 205 21.9 µM | SN12C 45.7 µM | A498 40.8 µM | SK-MEL-28 51.4 µM | A549 33.5 µM | UACC-257 41.8 µM | SK-MEL-5 34 µM | LOX IMVI 40.9 µM | OVCAR-8 49.5 µM

O=C(O)CNc1c2ccccc2nc2ccccc12
inactive: SNB-75 > 100 µM | XF498 > 100 µM | KM12 > 100 µM | SNB-19 > 100 µM | EKVX > 100 µM | 786-0 > 100 µM | Malme-3M > 100 µM | RXF 631 > 100 µM | OVCAR-3 80.4 µM | U-251 > 100 µM | TK-10 > 100 µM | CCRF-CEM > 100 µM | OVCAR-5 > 100 µM | SR > 100 µM | KM-20L2 > 100 µM | UO-31 50.6 µM | HT-29 > 100 µM | M14 > 100 µM | SW-620 > 100 µM | MOLT-4 > 100 µM | NCI-H226 > 100 µM | SK-MEL-2 > 100 µM | RXF 393 > 100 µM | ACHN > 100 µM | OVCAR-4 22.1 µM | CAKI-1 > 100 µM | IGROV-1 > 100 µM | DMS-114 60.4 µM | SK-OV-3 > 100 µM | HCT-116 78.3 µM | DLD-1 > 100 µM | NCI-H522 49.8 µM | RPMI-8226 56.8 µM | SF-268 > 100 µM | HL-60 48.2 µM | NCI-H23 > 100 µM | NCI-H460 > 100 µM | HCC 2998 > 100 µM | HOP-92 > 100 µM | SF-295 > 100 µM | LXFL 529 > 100 µM | K562 > 100 µM | DMS-273 > 100 µM | SF-539 > 100 µM | COLO 205 > 100 µM | UACC-62 > 100 µM | SN12C > 100 µM | SK-MEL-28 > 100 µM | A549 > 100 µM | UACC-257 > 100 µM | SK-MEL-5 > 100 µM | LOX IMVI > 100 µM | OVCAR-8 > 100 µM
> 100 µM: HCT-15

CCCCCCCCCCCCC(Br)C(C)=O (stereo not given)
inactive: XF498 > 100 µM | KM12 > 100 µM | SNB-19 > 100 µM | EKVX > 100 µM | 786-0 > 100 µM | Malme-3M > 100 µM | RXF 631 > 100 µM | OVCAR-3 > 100 µM | U-251 > 100 µM | TK-10 > 100 µM | CCRF-CEM > 100 µM | OVCAR-5 > 100 µM | SNB-78 > 100 µM | KM-20L2 > 100 µM | UO-31 > 100 µM | HT-29 > 100 µM | M14 > 100 µM | SW-620 > 100 µM | NCI-H226 > 100 µM | SK-MEL-2 > 100 µM | RXF 393 > 100 µM | M19-MEL > 100 µM | ACHN > 100 µM | OVCAR-4 > 100 µM | IGROV-1 > 100 µM | DMS-114 > 100 µM | SK-OV-3 > 100 µM | HCT-116 > 100 µM | DLD-1 > 100 µM | HOP-62 > 100 µM | NCI-H522 > 100 µM | SF-268 > 100 µM | HL-60 > 100 µM | NCI-H23 > 100 µM | NCI-H460 > 100 µM | HCC 2998 > 100 µM | HOP-92 > 100 µM | SF-295 > 100 µM | LXFL 529 > 100 µM | HOP-18 > 100 µM | DMS-273 > 100 µM | SF-539 > 100 µM | COLO 205 > 100 µM | UACC-62 > 100 µM | SN12C > 100 µM | A498 > 100 µM | SK-MEL-28 > 100 µM | A549 > 100 µM | UACC-257 > 100 µM | SK-MEL-5 > 100 µM | LOX IMVI > 100 µM | OVCAR-8 > 100 µM
> 100 µM: HCT-15
